The source of these data is patent US6355238B1, “Specific immune system modulation” (Yale University, priority 1992, dated 2002).

One assay addresses Lysozyme (Gallus gallus, UniProt P00698). The experiment in a line: Covalent photobinding of 8-MOP to lysozyme (liquid scintillation, [3H]8-MOP). It is filed as binding. To be noted: lysozyme 0.4 mg/ml, 8-MOP 0.04 mg/ml. Here is the method:
Lysozyme (0.4 mg/ml) and 8-MOP (0.04 mg/ml) including trace amounts of [3H]8-MOP) were exposed to UVA (3.6 mW/cm^2; filtered with window glass to remove UVB). Aliquots were taken after 15, 30, 60 and 120 min. UVA exposure and were dialyzed exhaustively using distilled water in a microdialyzer (BRL, Bethesda, Md.). An aliquot of each sample was analyzed by liquid scintillation analysis to determine the extent of covalent photobinding of 8-MOP.

In the next assay the target is T1, Chick ovalbumin (Gallus gallus, UniProt P01012).
T1 sequence (P01012 1-386): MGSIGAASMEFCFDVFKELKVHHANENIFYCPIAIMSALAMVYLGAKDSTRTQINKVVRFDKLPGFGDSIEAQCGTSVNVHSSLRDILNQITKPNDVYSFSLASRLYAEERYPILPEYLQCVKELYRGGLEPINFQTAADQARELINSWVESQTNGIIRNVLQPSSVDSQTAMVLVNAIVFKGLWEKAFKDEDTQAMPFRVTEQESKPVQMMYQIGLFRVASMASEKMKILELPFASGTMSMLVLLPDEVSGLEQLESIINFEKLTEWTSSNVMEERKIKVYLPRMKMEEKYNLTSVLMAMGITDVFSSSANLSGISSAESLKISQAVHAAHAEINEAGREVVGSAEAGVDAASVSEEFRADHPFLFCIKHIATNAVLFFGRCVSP
The experiment in a line: Covalent photobinding of 8-MOP to ovalbumin with visible light. The assay is classed as binding. Here is the method: Approximately 0.1% photoadducts were observed per amino acid.
Ovalbumin (0.4 mg/ml) and 8-MOP (0.04 mg/ml) containing trace amounts of [^3H]8-MOP) were exposed to visible radiation (419 nm) for 60 min. and thereafter, dialyzed exhaustively using distilled water in a microdialyzer (BRL, Bethesda, Md.). An aliquot of the sample was analyzed by liquid scintillation analysis.

The conditions of assay [1]: compared with 8-MOP; Calzavara-Pinton et al. 1992; cited from earlier work.

Sequence of Lysozyme (P00698 19-147): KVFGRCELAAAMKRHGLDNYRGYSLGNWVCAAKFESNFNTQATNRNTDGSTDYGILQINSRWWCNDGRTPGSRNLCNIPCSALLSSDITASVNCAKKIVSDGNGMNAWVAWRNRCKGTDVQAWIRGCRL

In the case of `COc1c2occc2cc2ccc(=O)oc12` [8-MOP, 8-methoxypsoralen], the “moles 8-MOP/moles Lysozyme” value at Lysozyme (0 min UVA exposure) was 0 moles 8-MOP/moles Lysozyme; on Lysozyme (30 min UVA exposure (3.6 mW/cm^2)) it was 0.90 moles 8-MOP/moles Lysozyme; on Lysozyme (60 min UVA exposure (3.6 mW/cm^2)) it was 2.04 moles 8-MOP/moles Lysozyme; on Lysozyme (120 min UVA exposure (3.6 mW/cm^2)), 1.86 moles 8-MOP/moles Lysozyme. For the same compound, on Chick ovalbumin (visible light (419 nm)), the “photoadducts per amino acid” value was “Approximately 0.1%”. Further, the “extent of covalent photobinding of 8-MOP to ovalbumin” value on Chick ovalbumin (visible radiation (419 nm) 60 min, ovalbumin 0.4 mg/ml, 8-MOP 0.04 mg/ml) is given as “approximately 0.039 8-MOP molecules/ovalbumin molecule”.

On to `COc1c2ccoc2cc2oc(=O)ccc12` [5-MOP, 5-methoxypsoralen], for which the “efficacy in the treatment of psoriasis” value in assay [1] was “not as efficacious as 8-MOP”.
